The values that follow are results of earlier work, collected in publication PMC12018205, “Mutant protein chemical rescue: From mechanisms to therapeutics” (The Journal of Biological Chemistry, 2025).

Series [1] relates to S-mandelate dehydrogenase R277G mutant. Also noted: method as in PMID 10955993.
The subject of series [2] is HDAC8. Also on record: method as in PMID 26463496. As to conditions: multiple forms.
Series [3] has as its system mutant α-galactosidase A (GalA). Also noted: method as in PMID 9883849. As to conditions: prevents aggregation in the endoplasmic reticulum.
For series [4], the system named is E361G-mutant β-galactosidase. The conditions noted are these: E361G mutant rescued.
The test system of series [5] is AS B (asparagine synthetase B) Arg325 to Ala mutant. Also noted: method as in PMID 9139684. As to conditions: 50 mM rescue agent.
For series [6], the system named is ornithine transcarbamylase R57G variant.
Series [7] has as its system rat pancreatic carboxypeptidase A R127A mutant. Also noted: method as in PMID 1304353. As to conditions: up.
The subject of series [8] is pyruvate kinase C9S/C268S/K221C triple mutant. The conditions noted are these: aminoethylation of K221C.
Series [9] concerns D189S trypsin.
Series [10] deals with Paenibacillus sp. dextranase glutamate mutants. The conditions noted are these: high concentration of 2.4 M.
Series [11] relates to Y14G-mutant ketosteroid isomerase. As to conditions: 2 mM.
The test system of series [12] is Y319A TbtD. As to conditions: 10 mM.
Series [13] relates to I278T CBS. Also on record: method as in PMID 17540596.
Series [14] relates to Lys80-mutant leucine dehydrogenase. As to conditions: One M; from 1.5% unrescued.
Series [15] has as its system Q227L Gα (Gsα subunit). As to conditions: substrate-assisted catalysis.
For series [16], the system named is R359C GS (glutamine synthetase). Also noted: method as in PMID 7912599. As to conditions: for rescue of kcat / reactivation of R359C mutant: covalent modification of Cys.
Series [17] relates to mutant p53 tumors. Also noted: method as in PMID 10617466. As to conditions: mouse xenograft studies.
For series [18], the system named is mutant PAH (phenylalanine hydroxylase). The conditions noted are these: PAH stabilization and enhancement of enzyme kinetics.
For series [19], the system named is galactocerebrosidase. Also noted: method as in PMID 24913062. The conditions noted are these: Krabbe disease.
Series [20] concerns Y51A-mutant xylose reductase. The conditions noted are these: NAD+-dependent oxidation of xylitol.
Series [21] concerns β-glycosidase (β-gly) W33G mutant. Also noted: method as in PMID 22655749.
Series [22] has as its system rationally designed proteins and temperature-sensitive library mutants in yeast.
Series [23] concerns N370S-mutant β-glucosidase. Also on record: method as in PMID 12434014.
Series [24] deals with aspartate aminotransferase K258C mutant. Also on record: method as in PMID 1907854. The conditions noted are these: aminoethylation of K258C.
Series [25] relates to clostridial GDH D156S mutant.
The test system of series [26] is mutant forms of CFTR. Also on record: method as in PMID 19846789. As to conditions: some mutant forms; epithelial cell membranes.
Series [27] relates to tripeptidyl peptidase I. Also noted: method as in PMID 20340139. The conditions noted are these: one form.
Series [28] concerns rat pancreatic carboxypeptidase A R127M mutant. Also noted: method as in PMID 1304353.
The test system of series [29] is trehalose phosphorylase R507A mutant. Also on record: method as in PMID 18205830. The conditions noted are these: up.
Series [30] concerns cytomegalovirus protease assemblin His to Gly mutant. Also noted: method as in PMID 16036911. As to conditions: in vitro and in mammalian cells.
In series [31] the test system is R388A v-Src in SYF MEF cells. The conditions noted are these: live cells, FRET-based cell sensor.
In series [32] the test system is subtilisin H64A mutant. Also noted: method as in PMID 2059622. The conditions noted are these: much lesser degree than His-containing substrate.
The subject of series [33] is β-class carbonic anhydrase Asp34 to Ala mutant. Also on record: method as in PMID 12107142. As to conditions: without affecting kcat/KM.
Series [34] has as its system Csk, Src, and Abl kinases Arg to Ala mutants.
Series [35] has as its system H122G NDPK. Also on record: method as in PMID 10200157.
For series [36], the system named is SpyCas9 H840A and H840G mutants. Also noted: method as in PMID 33428390. As to conditions: 100 mM; both H840 mutants.

Regarding `CN(C)C(=N)N` [1,1-dimethylguanidine], in series [1], the “effectiveness as rescue agent” value is given as “not effective”. For the compound `O=C(NC(=S)Nc1ccccc1)c1ccccc1` [N-(phenylcarbamothioyl)-benzamide], the “rescue of HDAC8 mutants” value in series [2] is listed as “partially or fully rescued”. On to `OC[C@H]1NC[C@H](O)[C@@H](O)[C@H]1O` [DGJ, deoxygalactonojirimycin], for which the “effect of binding on mutant GalA” value in [3] is “stabilize mutant GalA”.

For the compound `[N-]=[N+]=[N-]` [azide], the “enhancement in transglycosylation activity over the WT enzyme” value in [4] is listed as 177 fold. Consider `Cl.N=C(N)N` [Guanidinium hydrochloride], for which the “specific activity restored, % of the WT enzyme” value in series [5] is given as ~15%. In series [6] (R57G variant), the “rescued kcat, within % of the WT enzyme” value is recorded as ≤ 10% and the stimulation of kcat is 2000 fold. Also, the EC50 in series [6] (R57G variant, read-out: half-maximal rescue concentration (Kr)) is 22 mM. Take `CN=C(N)N` [methylguanidine]: the “increase in kcat of the R127A mutant” value in series [7] is reported as “up to 100 fold”. Besides, in series [1], the “rescued KM, within fold of the WT value” is reported as ≤ 30 fold and the “rescued kcat, within fold of the WT value” is ≤ 1.5 fold. For the same compound, the EC50 in series [1] (read-out: half-maximal rescue (Kr)) was ~10 mM.

With `O=C(NCCI)C(F)(F)F` [N-[2-iodoethyl]trifluoroacetamide], the “activity rescued, % of the WT pyruvate kinase activity” value in series [8] was 4.5%. On to `CC(=O)O` [acetate], for which, in series [9], the “enhancement of D189S trypsin activity” value is “could enhance the activity”. For the same compound, the “rescue for substrates bearing Arg at P1 versus Lys” value in [9] (D189S trypsin) is listed as 10 fold. As to `c1ccncc1` [pyridine], the “restoration of R57G variant activity” value in series [6] is given as “not”. As to `O=CO` [formate], in series [10], the “rescue of glutamate mutants” value is “effective”. Also, in series [4], the “enhancement in transglycosylation activity over the WT enzyme” value is listed as 177 fold. For the compound `Oc1ccccc1` [phenol], in series [11], the “rescue of activity over baseline” value is recorded as “about 10 fold” and the “rescued enzyme activity, % of WT activity” value is “below 1%”. Moreover, the “effect on pyridine product formation” value in series [12] was “substantial increase in pyridine formation”. As for `OC[C@@H](O)[C@@H](O)[C@H](O)[C@@H](O)CO` [sorbitol], in series [13], the “rescue of I278T CBS by chemical chaperones” value was “partially rescued”. Take `N` [ammonia]: the “deamination activity restored, % of WT leucine dehydrogenase” value in series [14] was 20%.

In the case of “3,4-diamino-benzophenone phosphonoamidate-GTP [DABP-GTP]”, in [15], the “GTPase activity rescue with GTP analog as substrate” value is on record as “nearly WT activity”. With `NCCCBr` [3-bromopropylamine], in [16], the “rescue of kcat / reactivation of R359C mutant” value was “could not reactivate”. As for `COc1ccc(/C=C/c2nc(NCCCN(C)C)c3ccccc3n2)cc1` [CP-31398], the effect on tumors result in series [17] was “shrunk tumors”.

As for `C[C@H](O)[C@H](O)[C@H]1CNc2nc(N)[nH]c(=O)c2N1` [tetrahydrobiopterin], in series [18], the “rescue of mutant PAH by excess cofactor” value is recorded as “rescue mutant forms of PAH”. Regarding `O=c1c(-c2ccc(O)c(O)c2)coc2cc(O)ccc12` [3′,4′,7-trihydroxyisoflavone], the rescue of galactocerebrosidase result in series [19] is “rescued”. As for `Br` [bromide ion], the “rescue of Y51A-mutant xylose reductase” value in series [20] is recorded as “partially rescued”. For the compound `c1ccc2[nH]ccc2c1` [indole], in series [21], the “rescue of β-gly” value is given as “fully rescued”.

Consider `CCNC(=N)N` [ethylguanidine], for which, in [7], the “increase in kcat of the R127A mutant” value is given as “up to 100 fold”. Consider `N=C(N)CSSCC(=N)N` [DTBA, 2,2′-dithiobis(acetamidine)], for which the “rescue of kcat / reactivation of R359C mutant” value in series [16] is given as “hardly affected”.

As for `N=C(N)N` [guanidinium], in series [22], the “extent of rescue in vivo” value was “weak”. As to `CCCCCCCCCN1C[C@H](O)[C@@H](O)[C@H](O)[C@H]1CO` [N-(n-nonyl)deoxynojirimycin], the “effect on mutant β-glucosidase stability and trafficking to the lysosome” value in [23] is on record as “shows promise in promoting the stability”. For `NCCBr` [2-bromoethylamine], in series [24], the “enzymatic activity restored, % of WT aspartate aminotransferase” value is listed as 7%.

In the case of `N=C(N)CCl` [2-CA, 2-chloroacetamidine], in series [16] (R359C GS after covalent modification of Cys), the “kcat restored, % of the value of the WT enzyme” value is reported as 70%. With `F` [Fluoride, fluoride], in series [25], the “maximum extent of rescue, forward reaction, increase over baseline” value is recorded as 1000 fold and the “maximum extent of rescue, reverse reaction, increase over baseline” value is on record as 4 fold. The EC50 in series [25] (read-out: Kr, reverse reaction, reductive amination) was 40 mM. For `CC(C)(C)c1cc(C(C)(C)C)c(NC(=O)c2c[nH]c3ccccc3c2=O)cc1O` [Ivacaftor], the “effect on mutant CFTR” value in [26] is “enhances their presence and transport function”.

Turning to `C[S+](C)[O-]` [dimethyl sulfoxide], the “extent of rescue in vivo” value in series [22] is “weak”. For the same compound, the “rescue of I278T CBS by chemical chaperones” value in series [13] was “partially rescued”. Also, the “rescue of tripeptidyl peptidase I” value in [27] is reported as “partially rescued”. Take `CN1[C@@H](CC(=O)c2ccccc2)CCC[C@H]1C[C@H](O)c1ccccc1` [α-lobeline]: the rescue of galactocerebrosidase result in [19] is “rescued”.

For `N=C(N)N` [Guanidine], the “increase in kcat of the R127A mutant” value in [7] is “up to 100 fold”. In series [28], the “rescue of the R127M mutant” value was “rescued”. Further, the “enhancement of enzymatic activity” value in [29] is “up to 50 fold”.

Regarding `N=C(N)NCCC[C@H](N)C(=O)O` [arginine], the “restoration of R57G variant activity” value in [6] is “not”.

Regarding `C[N+](C)(C)[O-]` [trimethylamine-N-oxide], the “extent of rescue in vivo” value in series [22] is “weak”. Take `Cn1ccnc1` [1-methylimidazole]: the “effectiveness as rescue agent” value in [1] was “not effective”. Take `c1c[nH]cn1` [imidazole]: the pKa entry is “approximately 7”. Besides, the “complementation of lost proteolytic activity” value in [30] is reported as “complemented efficiently”. For the same compound, the “time to observed tyrosine phosphorylation after treatment” value in series [31] was ≤ 1 min. In series [32], the “restoration of catalytic activity” value is “partially restored”. Further, in series [33], the “rescue of kcat defect” value is reported as “rescued this defect in kcat”. Further, the “rescue of activity of Arg to Ala mutants” value in [34] is reported as > 100 fold. For the same compound, the EC50 in series [34] (read-out: EC50 of tyrosine kinase rescue) was ~5 mM. Further, in series [35] (ATP), the “rescue of kcat/KM,ATP” value is listed as 40 fold and the “rescued kcat/KM,ATP, fold below that of the WT enzyme” value is 50 fold. Also, in [35] (ATPγS), the “kcat/KM,ATPγS, fold higher than the unrescued condition” value is listed as 100 fold and the “rescued kcat/KM,ATPγS, fold below WT” value is 2 fold. Besides, the “rescue of in vitro nuclease activity” value in series [36] is on record as “substantially rescued”.
